Like-named read-outs stand apart in the source and are kept apart here.
Columns and labels:
Assay type in all cases: cell-based, Staphylococcus aureus
S. aureus (MN8) = conditions: for Reduction of Toxin (%): vs methanol control
S. aureus FRI-1169 = test system: S. aureus FRI-1169
S. aureus FRI-1187 = test system: S. aureus FRI-1187

| SMILES | TSST-1 produced when compared to the control (S. aureus (MN8)) | ELISA: TSST-1 ng/OD unit (S. aureus (MN8); 2 μg/mL test compound, 24 hours) [ng/OD unit] | Reduction of Toxin (%) (S. aureus (MN8); 2 μg/mL test compound) | Reduction of Toxin (%) (S. aureus (MN8); 0.01 μg/mL test compound) | TSST-1 produced when compared to the control (S. aureus FRI-1169) | ELISA: TSST-1 ng/OD unit (S. aureus FRI-1169; 0.5 μg/mL triclosan) [ng/OD unit] | TSST-1 produced when compared to the control (S. aureus FRI-1187) | ELISA: TSST-1 ng/OD unit (S. aureus FRI-1187; 0.5 ug/mL triclosan) [ng/OD unit] |
| --- | --- | --- | --- | --- | --- | --- | --- | --- |
| Oc1c(Cl)cc(Cl)c(Cl)c1Cc1c(O)c(Cl)cc(Cl)c1Cl [Hexachlorophene, hexachlorophene] | significantly less TSST-1 | 330 | 68 |  |  |  |  |  |
| Oc1cc(Cl)ccc1Oc1ccc(Cl)cc1Cl [Triclosan, triclosan] | significantly less TSST-1 |  |  | 88 | less TSST-1 | 40 | less TSST-1 | 95 |

Reference: patent US7118759B2 (priority 2001, dated 2006)
